Results from ChEMBL document CHEMBL1147004, “Alkynyl pyrimidines as dual EGFR/ErbB2 kinase inhibitors” (Bioorg Med Chem Lett, 2006).

Key:
[1] = target: Receptor tyrosine-protein kinase erbB-2 (Homo sapiens, UniProt P04626); assay: Inhibition of ErbB2
HN5 = assay: Antiproliferative activity against human HN5 cell line
BT-474 = assay: Antiproliferative activity against human BT474 cell line
HFF = assay: Antiproliferative activity against human HFF cell line
[2] = target: Epidermal growth factor receptor (Homo sapiens, UniProt P00533)
[3] = Permeability in PAMPA; type: ADME; conditions: read-out: permeability

Chain of Epidermal growth factor receptor (P00533 whole entry): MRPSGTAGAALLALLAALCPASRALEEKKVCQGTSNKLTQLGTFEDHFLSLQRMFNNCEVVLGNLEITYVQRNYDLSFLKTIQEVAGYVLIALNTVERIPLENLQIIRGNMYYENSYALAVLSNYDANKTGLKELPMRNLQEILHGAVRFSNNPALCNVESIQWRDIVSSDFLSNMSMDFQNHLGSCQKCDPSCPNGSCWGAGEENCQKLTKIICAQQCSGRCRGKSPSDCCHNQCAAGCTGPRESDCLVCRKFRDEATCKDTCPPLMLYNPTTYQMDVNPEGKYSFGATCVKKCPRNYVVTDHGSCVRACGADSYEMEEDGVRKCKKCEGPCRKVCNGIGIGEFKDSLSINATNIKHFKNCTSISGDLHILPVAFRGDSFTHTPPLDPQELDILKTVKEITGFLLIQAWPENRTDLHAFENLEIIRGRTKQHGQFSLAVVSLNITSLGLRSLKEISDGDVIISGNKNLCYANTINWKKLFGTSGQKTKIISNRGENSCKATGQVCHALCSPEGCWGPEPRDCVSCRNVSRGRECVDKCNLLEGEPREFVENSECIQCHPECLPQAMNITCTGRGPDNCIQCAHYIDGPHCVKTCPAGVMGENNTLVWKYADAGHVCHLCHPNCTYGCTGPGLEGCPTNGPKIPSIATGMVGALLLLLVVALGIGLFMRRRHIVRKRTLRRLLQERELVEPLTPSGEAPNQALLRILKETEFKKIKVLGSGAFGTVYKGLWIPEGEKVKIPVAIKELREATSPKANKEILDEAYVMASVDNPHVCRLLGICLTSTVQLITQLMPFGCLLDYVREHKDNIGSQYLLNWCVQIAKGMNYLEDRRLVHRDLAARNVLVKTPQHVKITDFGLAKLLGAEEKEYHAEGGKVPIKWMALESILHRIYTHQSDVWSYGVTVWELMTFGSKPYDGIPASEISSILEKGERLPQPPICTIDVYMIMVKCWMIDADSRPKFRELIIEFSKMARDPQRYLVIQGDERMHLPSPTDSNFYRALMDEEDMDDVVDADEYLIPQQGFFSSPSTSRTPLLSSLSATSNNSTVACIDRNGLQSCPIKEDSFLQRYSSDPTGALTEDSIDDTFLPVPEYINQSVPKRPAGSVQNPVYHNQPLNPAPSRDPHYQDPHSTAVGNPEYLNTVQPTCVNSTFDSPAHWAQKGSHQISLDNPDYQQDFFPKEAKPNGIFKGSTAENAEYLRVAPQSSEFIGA
Chain of Receptor tyrosine-protein kinase erbB-2 (P04626 whole entry): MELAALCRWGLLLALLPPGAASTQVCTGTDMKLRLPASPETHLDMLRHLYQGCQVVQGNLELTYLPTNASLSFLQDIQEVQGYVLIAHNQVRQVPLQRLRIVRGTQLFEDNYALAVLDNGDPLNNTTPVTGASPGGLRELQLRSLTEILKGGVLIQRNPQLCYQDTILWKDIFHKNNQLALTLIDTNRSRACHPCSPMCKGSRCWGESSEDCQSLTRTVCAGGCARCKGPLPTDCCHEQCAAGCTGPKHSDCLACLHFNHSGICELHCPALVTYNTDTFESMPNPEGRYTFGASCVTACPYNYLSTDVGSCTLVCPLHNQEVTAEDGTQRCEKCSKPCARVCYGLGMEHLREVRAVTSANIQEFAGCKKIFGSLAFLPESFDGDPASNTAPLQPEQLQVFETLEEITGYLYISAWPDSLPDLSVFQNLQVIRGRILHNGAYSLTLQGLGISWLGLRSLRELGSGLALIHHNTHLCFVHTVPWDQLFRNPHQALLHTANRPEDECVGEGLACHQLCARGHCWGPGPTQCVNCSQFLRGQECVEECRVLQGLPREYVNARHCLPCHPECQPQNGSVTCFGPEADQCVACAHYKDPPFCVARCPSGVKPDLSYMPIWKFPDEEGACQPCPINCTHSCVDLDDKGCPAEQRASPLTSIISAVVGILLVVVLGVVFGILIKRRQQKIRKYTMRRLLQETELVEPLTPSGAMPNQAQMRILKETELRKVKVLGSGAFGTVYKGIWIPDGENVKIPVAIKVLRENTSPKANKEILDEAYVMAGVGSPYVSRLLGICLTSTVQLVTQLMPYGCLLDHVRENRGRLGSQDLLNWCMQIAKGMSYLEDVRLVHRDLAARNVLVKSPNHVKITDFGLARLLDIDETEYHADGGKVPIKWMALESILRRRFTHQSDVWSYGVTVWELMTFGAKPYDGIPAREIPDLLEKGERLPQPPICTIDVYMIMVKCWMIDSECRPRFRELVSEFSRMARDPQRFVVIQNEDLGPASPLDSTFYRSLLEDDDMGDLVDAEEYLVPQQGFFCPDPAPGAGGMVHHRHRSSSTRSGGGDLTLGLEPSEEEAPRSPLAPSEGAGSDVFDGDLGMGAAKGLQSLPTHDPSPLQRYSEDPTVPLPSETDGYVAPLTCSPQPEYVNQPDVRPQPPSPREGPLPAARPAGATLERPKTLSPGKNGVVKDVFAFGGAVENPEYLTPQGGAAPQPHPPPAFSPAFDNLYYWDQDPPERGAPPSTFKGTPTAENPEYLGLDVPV

SMILES: OCc1ccc(C#Cc2cncnc2Nc2ccc(OCc3cccc(F)c3)c(Cl)c2)o1
- IC50 [1]: 47 nM
- IC50 (HN5): 930 nM
- IC50 (BT-474): 2040 nM
- IC50 (HFF): 15800 nM
- IC50 [2]: 33 nM

SMILES: OCc1cccc(C#Cc2cncnc2Nc2ccc(OCc3cccc(F)c3)c(Cl)c2)n1
- IC50 [1]: 13 nM
- IC50 (BT-474): 5790 nM
- IC50 (HFF): > 30000 nM

SMILES: Nc1ccccc1C#Cc1cncnc1Nc1ccc(OCc2cccc(F)c2)c(Cl)c1
- IC50 [1]: 91 nM
- IC50 [2]: 63 nM

SMILES: Fc1cccc(COc2ccc(Nc3ncncc3C#Cc3ccccn3)cc2Cl)c1
- IC50 [1]: 55 nM
- IC50 [2]: 17 nM

SMILES: OCc1nc(C#Cc2cncnc2Nc2ccc(OCc3cccc(F)c3)c(Cl)c2)cs1
- IC50 [1]: 160 nM
- IC50 [2]: 76 nM

SMILES: Nc1cccc(C#Cc2cncnc2Nc2ccc(OCc3cccc(F)c3)c(Cl)c2)c1
- IC50 [1]: 44 nM
- IC50 [2]: 42 nM

SMILES: Fc1cccc(COc2ccc(Nc3ncncc3C#Cc3cc[nH]n3)cc2Cl)c1
- IC50 [1]: 66 nM
- IC50 [2]: 42 nM

SMILES: Fc1cccc(COc2ccc(Nc3ccncn3)cc2Cl)c1
- IC50 [1]: 21000 nM
- IC50 [2]: 320 nM

SMILES: C#Cc1cncnc1Nc1ccc(OCc2cccc(F)c2)c(Cl)c1
- IC50 [1]: 3800 nM
- IC50 [2]: 85 nM

SMILES: NCc1cccc(C#Cc2cncnc2Nc2ccc(OCc3cccc(F)c3)c(Cl)c2)n1
- IC50 [1]: 38 nM
- IC50 [2]: 21 nM

SMILES: CS(=O)(=O)CCNC(=O)NCc1cccc(C#Cc2cncnc2Nc2ccc(OCc3cccc(F)c3)c(Cl)c2)n1
- IC50 [1]: 9 nM
- IC50 (HN5): 770 nM
- IC50 (BT-474): 840 nM
- IC50 (HFF): > 30000 nM
- IC50 [2]: 15 nM

SMILES: COC(=O)CCCC(=O)Nc1cccc(C#Cc2cncnc2Nc2ccc(OCc3cccc(F)c3)c(Cl)c2)c1
- IC50 [1]: 29 nM
- IC50 (HN5): 3470 nM
- IC50 (BT-474): 4240 nM
- IC50 (HFF): 22400 nM
- IC50 [2]: 31 nM

SMILES: Fc1cccc(COc2ccc(Nc3ncncc3C#Cc3ncccn3)cc2Cl)c1
- IC50 [1]: 60 nM
- IC50 [2]: 77 nM

SMILES: CS(=O)(=O)Nc1cccc(C#Cc2cncnc2Nc2ccc(OCc3cccc(F)c3)c(Cl)c2)c1
- IC50 [1]: 45 nM
- IC50 [2]: 110 nM

SMILES: CNC(=O)NCc1cccc(C#Cc2cncnc2Nc2ccc(OCc3cccc(F)c3)c(Cl)c2)n1
- IC50 [1]: 69 nM
- IC50 [2]: 23 nM

SMILES: CS(=O)(=O)CCC(=O)Nc1cccc(C#Cc2cncnc2Nc2ccc(OCc3cccc(F)c3)c(Cl)c2)c1
- IC50 [1]: 32 nM
- IC50 [2]: 50 nM

SMILES: CC(=O)Nc1ccc(C#Cc2cncnc2Nc2ccc(OCc3cccc(F)c3)c(Cl)c2)cc1
- IC50 [1]: 1820 nM
- IC50 [2]: 25100 nM

SMILES: Fc1cccc(COc2ccc(Nc3ncncc3C#Cc3cccnc3)cc2Cl)c1
- IC50 [1]: 140 nM
- IC50 [2]: 74 nM

SMILES: Fc1cccc(COc2ccc(Nc3ncncc3C#Cc3ccccc3)cc2Cl)c1 [GW651576X]
- IC50 [1]: 780 nM
- IC50 [2]: 79 nM

SMILES: Nc1ccc(C#Cc2cncnc2Nc2ccc(OCc3cccc(F)c3)c(Cl)c2)cc1 [GW659893X]
- IC50 [1]: 36 nM
- IC50 [2]: 30 nM

SMILES: CC(=O)Nc1cccc(C#Cc2cncnc2Nc2ccc(OCc3cccc(F)c3)c(Cl)c2)c1 [GW703087X]
- IC50 [1]: 13 nM
- IC50 (HN5): 13700 nM
- IC50 (BT-474): 21600 nM
- IC50 (HFF): > 30000 nM
- Papp [3]: < 0.3 ×10⁻⁶ cm/s
- IC50 [2]: 12 nM

SMILES: CNC(=O)c1cccc(C#Cc2cncnc2Nc2ccc(OCc3cccc(F)c3)c(Cl)c2)c1 [GW772405X]
- IC50 [1]: 32 nM
- IC50 [2]: 79 nM

SMILES: CC(=O)Nc1cccc(C#Cc2cncnc2Nc2ccc(OCc3cccc(F)c3)c(Cl)c2)n1 [GW794726X]
- IC50 [1]: 59 nM
- IC50 [2]: 91 nM

SMILES: Nc1nccc(C#Cc2cncnc2Nc2ccc(OCc3cccc(F)c3)c(Cl)c2)n1 [GW799251X]
- IC50 [1]: 12 nM

SMILES: CC(=O)NCc1cccc(C#Cc2cncnc2Nc2ccc(OCc3cccc(F)c3)c(Cl)c2)c1 [GW807930X]
- IC50 [1]: 52 nM
- IC50 [2]: 60 nM
